Test results from US11591288B2, “Compositions and methods for treating atherosclerotic cardiovascular disease” (GAVISH-GALILEE BIO APPLICATIONS LTD., priority 2017, dated 2023).

Key:
[1] = test system: Human umbilical vein endothelial cells (HUVECs); assay: HDL-induced endothelial NO release, DAN assay; assay type: cell-based; conditions: HDL 50 μg/ml preincubated 3 h with 10, 20, 50 μg/ml; HUVECs 2 h
Protocol: HUVECs were stimulated for 2 h with HDL (50 μg/ml) preincubated with DMSO, lyso-DGTS and S1P at final concentrations of 10, 20, and 50 μg/ml for 3 h. Media were then collected and treated with nitrate reductase followed by analysis using the DAN assay. Data are expressed as NO concentration (μM) released by the cells. Each experiment was repeated separately at least three times. *p<0.05, ***p<0.0001 related to the control (HDL without lyso-DGTS or S1P). Statistics were analyzed using one-way annova Graphpad prism 5 software.
Human umbilical vein endothelial cells (HUVECs) were incubated for 2 hours with HDL preincubated with different concentration of lyso-DGTS or S1P for 3 hours, and NO production determined using 2,3-diaminonapthalene (DAN) assay.

[2] = test system: rePON1; conditions: 25° C.; Cohen et al., 2014; cited from earlier work
[3] = test system: J774A.1 macrophages; conditions: as previously shown; cited from earlier work
[4] = target: PON1 (Homo sapiens, UniProt P27169); conditions: Cohen et al., 2014; cited from earlier work
Sequence of PON1 (P27169 whole entry, species assumed): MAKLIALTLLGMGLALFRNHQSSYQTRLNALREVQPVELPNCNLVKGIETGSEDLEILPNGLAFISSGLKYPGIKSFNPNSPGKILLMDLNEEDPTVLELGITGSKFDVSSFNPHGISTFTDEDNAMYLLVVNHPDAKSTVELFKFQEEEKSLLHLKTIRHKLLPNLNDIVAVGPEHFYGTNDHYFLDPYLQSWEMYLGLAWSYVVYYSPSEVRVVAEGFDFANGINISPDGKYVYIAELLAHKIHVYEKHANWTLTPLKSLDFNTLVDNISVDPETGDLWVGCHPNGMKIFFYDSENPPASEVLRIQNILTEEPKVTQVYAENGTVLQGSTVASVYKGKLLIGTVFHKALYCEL

Compound | effect on HDL ability to induce endothelial NO release [1] | Binding constant Ka to PON1 [2] [M⁻¹] | effect on PON1 uptake by macrophage cells [3] | decrease of the ratio between HDL-PON1 and free-PON1 [4] [%]
CCCCCCCCCCCCC/C=C/[C@@H](O)[C@@H](N)COP(=O)(O)O [S1P, Sphingosine 1-Phosphate, reference compound] | significantly increased the HDL ability to induce endothelial NO release at a dose dependent manner | – | – | –
PC 16:0 18:2 | – | 1680 | enhance PON1 uptake by macrophage cells | 50
